Data from ChEMBL document CHEMBL5346941, “Design, synthesis and evaluation of novel monoamine oxidase B (MAO-B) inhibitors with improved pharmacokinetic properties for Parkinson's disease” (Eur J Med Chem, 2023).

Key:
[1] = biological target: T1, Amine oxidase [flavin-containing] A (Homo sapiens, UniProt P21397); experiment: Inhibition of recombinant human MAO-A expressed in Sf9 cells using […] as substrate preincubated for 15 mins followed by substrate addition and measured after 60 mins by luciferin based luminescence analysis
T1 sequence (P21397 whole entry): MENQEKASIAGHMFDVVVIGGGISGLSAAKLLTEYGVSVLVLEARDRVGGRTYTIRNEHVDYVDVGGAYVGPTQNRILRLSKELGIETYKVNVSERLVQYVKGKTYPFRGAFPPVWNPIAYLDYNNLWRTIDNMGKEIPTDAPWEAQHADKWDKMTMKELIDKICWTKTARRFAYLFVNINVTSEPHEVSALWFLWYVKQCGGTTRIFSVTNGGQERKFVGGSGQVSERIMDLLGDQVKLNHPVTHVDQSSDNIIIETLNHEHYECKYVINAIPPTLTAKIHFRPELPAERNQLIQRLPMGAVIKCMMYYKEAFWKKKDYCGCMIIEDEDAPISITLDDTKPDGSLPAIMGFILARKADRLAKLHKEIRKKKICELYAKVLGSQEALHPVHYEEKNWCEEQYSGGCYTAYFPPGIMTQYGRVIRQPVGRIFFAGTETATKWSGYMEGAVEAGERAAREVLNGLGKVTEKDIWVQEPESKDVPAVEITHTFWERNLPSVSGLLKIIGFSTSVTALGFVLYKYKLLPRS

[2] = biological target: T2, Amine oxidase [flavin-containing] B (Homo sapiens, UniProt P27338); experiment: Inhibition of recombinant human MAO-B expressed in Sf9 cells using p-tyramine as substrate preincubated for 15 mins followed by substrate addition and measured after 60 mins by luciferin based luminescence analysis
T2 sequence (P27338 whole entry): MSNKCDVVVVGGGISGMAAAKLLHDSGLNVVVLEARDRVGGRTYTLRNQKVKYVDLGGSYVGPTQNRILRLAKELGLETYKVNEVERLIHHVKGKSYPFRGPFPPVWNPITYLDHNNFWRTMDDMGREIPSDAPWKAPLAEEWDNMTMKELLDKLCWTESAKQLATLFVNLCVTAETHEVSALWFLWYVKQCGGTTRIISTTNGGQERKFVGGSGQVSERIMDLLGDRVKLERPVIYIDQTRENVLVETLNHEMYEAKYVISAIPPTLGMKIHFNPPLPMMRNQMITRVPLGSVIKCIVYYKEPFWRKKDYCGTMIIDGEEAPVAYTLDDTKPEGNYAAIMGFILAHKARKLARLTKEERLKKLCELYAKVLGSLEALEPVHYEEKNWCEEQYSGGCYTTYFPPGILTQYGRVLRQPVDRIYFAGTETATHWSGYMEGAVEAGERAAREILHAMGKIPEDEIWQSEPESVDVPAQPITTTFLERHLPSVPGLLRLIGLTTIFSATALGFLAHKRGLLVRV

[3] = Cmax in fasted Sprague-Dawley rat at 1 mg/kg, iv measured for 24 hrs; format: ADME, organism-based; parameters: dose 1 mg/kg, time 24 hrs, route iv; details: Sprague-Dawley, in vivo, read-out: Cmax
[4] = AUC (0 to t) in fasted Sprague-Dawley rat at 1 mg/kg, iv measured for 24 hrs; format: ADME, organism-based; parameters: dose 1 mg/kg, time 24 hrs, route iv; details: in vivo
[5] = Elimination half life in fasted Sprague-Dawley rat at 1 mg/kg, iv measured for 24 hrs; format: ADME, organism-based; details: in vivo, read-out: beta t1/2 (converted)
[6] = Volume of distribution at steady state in fasted Sprague-Dawley rat at 1 mg/kg, iv measured for 24 hrs; format: ADME, organism-based; details: in vivo, read-out: Vdss
[7] = Clearance in fasted Sprague-Dawley rat at 1 mg/kg, iv measured for 24 hrs; format: ADME, organism-based; details: in vivo
[8] = Cmax in fasted Sprague-Dawley rat at 5 mg/kg, IG measured for 24 hrs; format: ADME, organism-based; parameters: dose 5 mg/kg, time 24 hrs, route ig; details: in vivo, po
[9] = AUC (0 to t) in fasted Sprague-Dawley rat at 5 mg/kg, IG measured for 24 hrs; format: ADME, organism-based; parameters: dose 5 mg/kg, time 24 hrs, route ig; details: in vivo, po
[10] = Elimination half life in fasted Sprague-Dawley rat at 5 mg/kg, IG measured for 24 hrs; format: ADME, organism-based; details: in vivo, po, read-out: beta t1/2 (converted)
[11] = Bioavailability in fasted Sprague-Dawley rat at 5 mg/kg, IG measured for 24 hrs; format: ADME, organism-based; details: in vivo, po
[12] = Cmax in fasted ICR mouse at 2 mg/kg, iv measured for 24 hrs; format: ADME, organism-based; parameters: time 24 hrs, dose 2 mg/kg, route iv; details: in vivo
[13] = AUC (0 to t) in fasted ICR mouse at 2 mg/kg, iv measured for 24 hrs; format: ADME, organism-based; parameters: dose 2 mg/kg, time 24 hrs, route iv; details: in vivo
[14] = Elimination half life in fasted ICR mouse at 2 mg/kg, iv measured for 24 hrs; format: ADME, organism-based; details: in vivo, read-out: beta t1/2 (converted)
[15] = Volume of distribution at steady state in fasted ICR mouse at 2 mg/kg, iv measured for 24 hrs; format: ADME, organism-based; details: in vivo, read-out: Vdss
[16] = Clearance in fasted ICR mouse at 2 mg/kg, iv measured for 24 hrs; format: ADME, organism-based; details: in vivo
[17] = Cmax in fasted ICR mouse at 5 mg/kg, IG measured for 24 hrs; format: ADME, organism-based; parameters: dose 5 mg/kg, time 24 hrs, route ig; details: in vivo, po
[18] = AUC (0 to t) in fasted ICR mouse at 5 mg/kg, IG measured for 24 hrs; format: ADME, organism-based; parameters: dose 5 mg/kg, time 24 hrs, route ig; details: in vivo, po
[19] = Elimination half life in fasted ICR mouse at 5 mg/kg, IG measured for 24 hrs; format: ADME, organism-based; details: in vivo, po, read-out: beta t1/2 (converted)
[20] = Bioavailability in fasted ICR mouse at 5 mg/kg, IG measured for 24 hrs; format: ADME, organism-based; details: in vivo, po
[21] = Metabolic stability in human liver microsomes assessed as half life at 1 uM incubated for 60 mins in presence of NADPH by LC-MS/MS analysis; format: ADME, Microsome
[22] = Metabolic stability in human liver microsomes assessed as intrinsic clearance at 1 uM incubated for 60 mins in presence of NADPH by LC-MS/MS analysis; format: ADME, Microsome; details: read-out: CLH
[23] = Metabolic stability in mouse liver microsomes assessed as half life at 1 uM incubated for 60 mins in presence of NADPH by LC-MS/MS analysis; format: ADME, Microsome
[24] = Metabolic stability in mouse liver microsomes assessed as intrinsic clearance at 1 uM incubated for 60 mins in presence of NADPH by LC-MS/MS analysis; format: ADME, Microsome; details: read-out: CLH
[25] = Metabolic stability in rat liver microsomes assessed as half life at 1 uM incubated for 60 mins in presence of NADPH by LC-MS/MS analysis; format: ADME, Microsome
[26] = Metabolic stability in rat liver microsomes assessed as intrinsic clearance at 1 uM incubated for 60 mins in presence of NADPH by LC-MS/MS analysis; format: ADME, Microsome; details: read-out: CLH
[27] = Metabolic stability in dog liver microsomes assessed as half life at 1 uM incubated for 60 mins in presence of NADPH by LC-MS/MS analysis; format: ADME, Canis lupus familiaris, Microsome
[28] = Metabolic stability in dog liver microsomes assessed as intrinsic clearance at 1 uM incubated for 60 mins in presence of NADPH by LC-MS/MS analysis; format: ADME, Canis lupus familiaris, Microsome; details: read-out: CLH
[29] = Drug concentration in Sprague-Dawley rat plasma at 5 mg/kg, ip measured after 15 mins by LC-MS/MS analysis; format: ADME, organism-based
[30] = Drug concentration in Sprague-Dawley rat plasma at 5 mg/kg, ip measured after 60 mins by LC-MS/MS analysis; format: ADME, organism-based
[31] = Drug concentration in Sprague-Dawley rat plasma at 5 mg/kg, ip measured after 120 mins by LC-MS/MS analysis; format: ADME, organism-based
[32] = Drug concentration in Sprague-Dawley rat brain at 5 mg/kg, ip measured after 15 mins by LC-MS/MS analysis; format: ADME, organism-based; details: read-out: Ct
[33] = Drug concentration in Sprague-Dawley rat brain at 5 mg/kg, ip measured after 60 mins by LC-MS/MS analysis; format: ADME, organism-based; details: read-out: Ct
[34] = Drug concentration in Sprague-Dawley rat brain at 5 mg/kg, ip measured after 120 mins by LC-MS/MS analysis; format: ADME, organism-based; details: read-out: Ct
[35] = Ratio of drug concentration in Sprague-Dawley brain to plasma at 5 mg/kg, ip measured after 15 mins by LC-MS/MS analysis; format: ADME, organism-based; details: rat, read-out: BPR
[36] = Ratio of drug concentration in Sprague-Dawley brain to plasma at 5 mg/kg, ip measured after 60 mins by LC-MS/MS analysis; format: ADME, organism-based; details: rat, read-out: BPR
[37] = Ratio of drug concentration in Sprague-Dawley brain to plasma at 5 mg/kg, ip measured after 120 mins by LC-MS/MS analysis; format: ADME, organism-based; details: rat, read-out: BPR

NC(=O)[C@@H]1C[C@H](F)CN1Cc1ccc2oc(-c3cccc(F)c3)cc2c1
IC50 [1]: 4.89 µM
IC50 [2]: 0.055 µM
Cmax [3]: 237 ng/mL
AUC(0-t) at 24 h [4]: 250 ng·h/mL
half-life [5]: 0.687 h
Vd [6]: 4.12 L/kg
clearance [7]: 66.4 mL/min/kg
Cmax [8]: 409 ng/mL
AUC(0-t) at 24 h [9]: 1500 ng·h/mL
half-life [10]: 2.21 h
bioavailability [11]: 126%

C[C@H](NCc1ccc(OCc2cccc(F)c2)cc1)C(N)=O [SAFINAMIDE]
Cmax [3]: 244 ng/mL
AUC(0-t) at 24 h [4]: 233 ng·h/mL
half-life [5]: 1.18 h
Vd [6]: 5.26 L/kg
clearance [7]: 70.6 mL/min/kg
Cmax [8]: 148 ng/mL
AUC(0-t) at 24 h [9]: 536 ng·h/mL
half-life [10]: 2.62 h
bioavailability [11]: 48.5%
Cmax [12]: 429 ng/mL
AUC(0-t) at 24 h [13]: 930 ng·h/mL
half-life [14]: 1.59 h
Vd [15]: 4.53 L/kg
clearance [16]: 34.7 mL/min/kg
Cmax [17]: 755 ng/mL
AUC(0-t) at 24 h [18]: 3050 ng·h/mL
half-life [19]: 2.78 h
bioavailability [20]: 129%
half-life at 1 µM [21]: 8.94 h
CLint scaled at 1 µM [22]: 2.8 mL/min/kg
half-life at 1 µM [23]: 1.1 h
CLint scaled at 1 µM [24]: 43.2 mL/min/kg
half-life at 1 µM [25]: 0.331 h
CLint scaled at 1 µM [26]: 38.3 mL/min/kg
half-life at 1 µM [27]: 1.1 h
CLint scaled at 1 µM [28]: 43.2 mL/min/kg
concentration at 0.25 h [29]: 371 ng/mL
concentration at 1 h [30]: 353 ng/mL
concentration at 2 h [31]: 144 ng/mL
concentration at 0.25 h [32]: 3960 ng/g
concentration at 1 h [33]: 5100 ng/g
concentration at 2 h [34]: 2170 ng/g
Kp at 0.25 h [35]: 10.7
Kp at 1 h [36]: 14.4
Kp at 2 h [37]: 15.1

NC(=O)[C@@H]1CCN1Cc1ccc2oc(-c3cccc(F)c3)cc2c1
IC50 [1]: 4.91 µM
IC50 [2]: 0.086 µM
Cmax [3]: 204 ng/mL
AUC(0-t) at 24 h [4]: 188 ng·h/mL
half-life [5]: 0.783 h
Vd [6]: 4.96 L/kg
clearance [7]: 87.9 mL/min/kg
Cmax [8]: 185 ng/mL
AUC(0-t) at 24 h [9]: 527 ng·h/mL
half-life [10]: 1.06 h
bioavailability [11]: 56.3%

C[C@H](NCc1ccc2oc(-c3ccccc3F)cc2c1)C(N)=O
IC50 [1]: 6.2 µM
IC50 [2]: 5.01 µM

NC(=O)[C@@H]1CCN1Cc1ccc2oc(-c3ccc(F)cc3)cc2c1
IC50 [1]: > 10 µM
IC50 [2]: 0.038 µM
Cmax [3]: 213 ng/mL
AUC(0-t) at 24 h [4]: 161 ng·h/mL
half-life [5]: 0.482 h
Vd [6]: 8.53 L/kg
clearance [7]: 102 mL/min/kg
Cmax [8]: 161 ng/mL
AUC(0-t) at 24 h [9]: 623 ng·h/mL
half-life [10]: 3.92 h
bioavailability [11]: 80.9%

C[C@H](NCc1ccc2oc(-c3ccc(F)cc3)cc2c1)C(N)=O
IC50 [1]: 3.54 µM
IC50 [2]: 0.948 µM

C[C@H](NCc1ccc2oc(-c3cccc(F)c3)cc2c1)C(N)=O
IC50 [1]: 4.94 µM
IC50 [2]: 2.25 µM

COc1ccc(-c2cc3cc(CN[C@@H](C)C(N)=O)ccc3o2)cc1
IC50 [1]: 2.78 µM
IC50 [2]: > 10 µM
